From US9995734B2, “Human T cell line assay for evaluating the immunologic identity of glatiramer acetate preparations” (Mylan Inc., priority 2013, dated 2018)
“And” between values parts separate entries of the source, which are not always exact repeats. Identical values can stand only once.

Legend:
Donor 3 COP T-Cell Lines = test: ATP proliferation assay (CellTiter Glo), Donor 3 COP T-cell lines, incl. reactivity to non-canonical GA peptides; format: cell-based, human; details: for Non-Canonical Peptide Non-Reactivity: proliferation <2 times no antigen control; for proliferation response to non-canonical peptides: 165-E3C, separate experiment; for Nonreactive T-Cell Line: Donor 3 COP lines, stimulation with the non-canonical GA peptide
Donor 1 COP T-Cell Lines = test: ATP proliferation assay (CellTiter Glo), Donor 1 COP T-cell lines, incl. reactivity to non-canonical GA peptides; format: cell-based, human; details: for luminescent ATP proliferation assay, mean / Non-Canonical Peptide Non-Reactivity: 222-2F12; for luminescent ATP proliferation assay, mean: no antigen 5673 (Table 9); for Non-Canonical Peptide Non-Reactivity: proliferation <2 times no antigen control; for Nonreactive T-Cell Line: stimulation with the non-canonical GA peptide
Experimental: Proliferation was evaluated by measuring ATP content using a luminescent method (CellTiter Glo Luminescent Cell Viability Assay, Promega, Madison, Wis., cat. #G7571) or by measuring BrdU uptake by ELISA (Millipore cat. #2752), in both cases following kit instructions. A split well format was used. Cells in each well were resuspended and 65 μl transferred to the wells of each of two new U-bottom 96-well plates, to generate the replicate plates. For the initial screening, the original 96-well plate received mitomycin-treated autologous PBMC as APC plus 10 μg/mL antigen (GA). A first replicate plate received 100 μl., mitomycin-treated PBMC alone (2×10^5), and no antigen, and a second replicate plate received 100 μL mitomycin-treated PBMC plus GA at a final concentration of 10 μg/mL. Therefore, all three plates received autologous APC (PBMC) treated with mitomycin C to prevent cell division. […] The latter two plates were incubated for 3 days at 37° C., 6% CO2 before adding CellTiter Glo or BrdU and measuring signal. IL-2 was added at 10 U/mL to the original 96-well plate for expansion on Day 17. For subsequent screenings, mitomycin-treated EBV-transformed autologous B-LCL (2×10^5 to 5×10^5 cells/mL) were used as APC.
COP-responsive T-cell lines were obtained from Donor 1. In the initial stimulation, isolated PBMC were plated at 1×10^5 cells per well (5×10^5 cells/mL) with 10 μg/mL Copaxone and cultured as described above. IL-2 was added to all wells on Days 4 and 7 of culture, and the wells screened for reactivity on Day 14 using a luminescent proliferation assay in split well format. The original plate was restimulated, and IL-2 added 4 days after restimulation.
(§1) T-cell line 222-2D8, generated from Donor 1 by initial stimulation with COP, was shown in at least two experiments to proliferate comparably following restimulation with GMA and COP. […] ATP levels were measured at 48 hours after stimulation. The control in the GMA series was no antigen, and the control in the COP series was MBP. The response to GMA in comparison to COP at the 10 μg/mL dose in this assay was 103.4%.
In a second ATP proliferation assay, carried out on Day 56 or culturing following stimulation with 1, 3, or 10 μg/mL of GMA or COP, the response to GMA in comparison to COP at the 10 μg/mL dose was 107.1%.
as §1, with “line 222-2F1,” for “line 222-2D8,”, “Donor 222” for “Donor 1”, “was 85.1%.” for “was 103.4%.”
On Day 56 of culturing, after six total rounds of stimulation, cell line 222-2F12 was assayed for proliferation in response to stimulation with GA and a series of non-canonical peptides. For the assay, 0, 3, 10, or 30 μg/mL of each of peptides GL 14, GLT 631, GAT 111, and GAT 631, COP, and GMA, were added to the T-cell lines at 1×10^5 cells/mL, in the presence of mitomycin C-treated autologous B-LCL. Proliferation was measured by luminescent ATP assay. Cell line 222-2F12 responded to GL 14 at 3 μg/mL, and not to the other non-canonical GA peptides tested. The response to GMA in comparison to COP at the 10 μg/mL dose in this assay was 99.4%.
The cultures were restimulated on days 46, 56, 67 and 75. On Day 56, cell lines 222-2D8, 222-1H12, 222-2F12, 222-2B8, 222-105, 222-2B11, and 222-2E1 again were tested for reactivity to stimulation with 1, 3, or 10 μg/mL of GMA or COP in a proliferation assay. ATP levels were measured in all seven cell lines at 48 hours (results in FIGS. 5A-G) after stimulation. The control in the GMA series was no antigen, and the control in the COP series was MBP. […]

[1] = T-cell line 165-C4C, 1 μg/mL antigen, Day 66 of culture, 0 μg/mL 1881
[2] = T-cell line 165-C4C, 3 μg/mL antigen, Day 66 of culture, 0 μg/mL 1881
[3] = T-cell line 165-C4C, 10 μg/mL antigen, Day 66 of culture, 0 μg/mL 1881
[4] = T-cell line 165-C7C, 1.25 μg/mL antigen, autologous B-LCL
[5] = T-cell line 165-C7C, 2.5 μg/mL antigen, autologous B-LCL
[6] = T-cell line 165-C7C, 5 μg/mL antigen, autologous B-LCL
[7] = T-cell line 165-C7C, 10 μg/mL antigen, autologous B-LCL
[8] = T-cell line 165-F3C, 1 μg/mL antigen, Day 77 of culture, 0 μg/mL 1563
[9] = T-cell line 165-F3C, 3 μg/mL antigen, Day 77 of culture, 0 μg/mL 1563
[10] = T-cell line 165-F3C, 10 μg/mL antigen, Day 77 of culture, 0 μg/mL 1563
[11] = T-cell line 165-F6C, 1.25 μg/mL antigen, Day 76 of culture, No Antigen value 517
[12] = T-cell line 165-F6C, 2.5 μg/mL antigen, Day 76 of culture, No Antigen value 517
[13] = T-cell line 165-F6C, 5 μg/mL antigen, Day 76 of culture, No Antigen value 517
[14] = T-cell line 165-F6C, 10 μg/mL antigen, Day 76 of culture, No Antigen value 517

Substance	Non-Canonical Peptide Non-Reactivity (Donor 3 COP T-Cell Lines; 165-C4C)	Non-Canonical Peptide Non-Reactivity (Donor 3 COP T-Cell Lines; 165-C7C)	proliferation response to non-canonical peptides (Donor 3 COP T-Cell Lines)	Non-Canonical Peptide Non-Reactivity (Donor 3 COP T-Cell Lines; 165-F3C)	Non-Canonical Peptide Non-Reactivity (Donor 3 COP T-Cell Lines; 165-F6C)	Non-Canonical Peptide Non-Reactivity (Donor 3 COP T-Cell Lines; 165-U3C (so in the source))	Nonreactive T-Cell Line (Donor 3 COP T-Cell Lines)	Proliferation (luminescent ATP assay), Mean (Donor 3 COP T-Cell Lines; [1])	Proliferation (luminescent ATP assay), Mean (Donor 3 COP T-Cell Lines; [2])	Proliferation (luminescent ATP assay), Mean (Donor 3 COP T-Cell Lines; [3])	Proliferation (luminescent ATP assay), Mean (Donor 3 COP T-Cell Lines; [4]) [RLU]	Proliferation (luminescent ATP assay), Mean (Donor 3 COP T-Cell Lines; [5]) [RLU]	Proliferation (luminescent ATP assay), Mean (Donor 3 COP T-Cell Lines; [6]) [RLU]	Proliferation (luminescent ATP assay), Mean (Donor 3 COP T-Cell Lines; [7]) [RLU]	Proliferation (luminescent ATP assay), Mean (Donor 3 COP T-Cell Lines; [8])	Proliferation (luminescent ATP assay), Mean (Donor 3 COP T-Cell Lines; [9])	Proliferation (luminescent ATP assay), Mean (Donor 3 COP T-Cell Lines; [10])	Proliferation (luminescent ATP assay), Mean (Donor 3 COP T-Cell Lines; [11])	Proliferation (luminescent ATP assay), Mean (Donor 3 COP T-Cell Lines; [12])	Proliferation (luminescent ATP assay), Mean (Donor 3 COP T-Cell Lines; [13])	further results
poly (Glu-Ala-Tyr; 1:1:1) [GAT 111]	GAT 111	GAT 111	did not react	GAT 111	GAT 111	GAT 111	165-C4C (Donor 3) and 165-C7C (Donor 3) and 165-E3C (Donor 3) and 165-F3C (Donor 3) and 165-F6C (Donor 3)	2330	2392	2233	273	231	224	264	2387	2269	1772	576	620	479	Proliferation (luminescent ATP assay), Mean (Donor 3 COP T-Cell Lines; [14]): 411; luminescent ATP proliferation assay, mean (Donor 1 COP T-Cell Lines; Day 56, 3 μg/mL): 3914; luminescent ATP proliferation assay, mean (Donor 1 COP T-Cell Lines; Day 56, 10 μg/mL): 3590; luminescent ATP proliferation assay, mean (Donor 1 COP T-Cell Lines; Day 56, 30 μg/mL): 2430; Non-Canonical Peptide Non-Reactivity (Donor 1 COP T-Cell Lines): GAT 111; Nonreactive T-Cell Line (Donor 1 COP T-Cell Lines; Donor 1 COP lines): 222-2F12 (Donor 1) and 222-1H12 (Donor 1)
poly (Glu-Ala-Tyr; 6:3:1) [GAT 631]	GAT 631	GAT 631	did not react	GAT 631	GAT 631	GAT 631	165-B6C (Donor 3) and 165-C4C (Donor 3) and 165-C7C (Donor 3) and 165-E3C (Donor 3) and 165-F3C (Donor 3) and 165-F6C (Donor 3)	2489	2687	2682	232	204	200	184	2389	2249	2391	516	479	463	Non-Canonical Peptide Non-Reactivity (Donor 3 COP T-Cell Lines; 165-B6C): GAT 631; Proliferation (luminescent ATP assay), Mean (Donor 3 COP T-Cell Lines; [14]): 449; luminescent ATP proliferation assay, mean (Donor 1 COP T-Cell Lines; Day 56, 3 μg/mL): 4342; luminescent ATP proliferation assay, mean (Donor 1 COP T-Cell Lines; Day 56, 10 μg/mL): 3226; luminescent ATP proliferation assay, mean (Donor 1 COP T-Cell Lines; Day 56, 30 μg/mL): 3071; Non-Canonical Peptide Non-Reactivity (Donor 1 COP T-Cell Lines): GAT 631; Nonreactive T-Cell Line (Donor 1 COP T-Cell Lines; Donor 1 COP lines): 222-2F12 (Donor 1) and 222-1H12 (Donor 1)
poly (Glu-Lys-Tyr; 6:3:1) [GLT 631]	GLT 631	GLT 631	did not react	GLT 631	GLT 631	GLT 631	165-B6C (Donor 3) and 165-C4C (Donor 3) and 165-C7C (Donor 3) and 165-E3C (Donor 3) and 165-F3C (Donor 3) and 165-F6C (Donor 3)	2465	2677	2939	273	219	273	219	2325	2557	2724	501	416	482	Non-Canonical Peptide Non-Reactivity (Donor 3 COP T-Cell Lines; 165-B6C): GLT 631; Proliferation (luminescent ATP assay), Mean (Donor 3 COP T-Cell Lines; [14]): 474; proliferation response to non-canonical GA peptides (Donor 1 COP T-Cell Lines; 222-1H12, Day 56, 0, 3, 10, 30 μg/mL): responded; luminescent ATP proliferation assay, mean (Donor 1 COP T-Cell Lines; Day 56, 3 μg/mL): 5277; luminescent ATP proliferation assay, mean (Donor 1 COP T-Cell Lines; Day 56, 10 μg/mL): 4934; luminescent ATP proliferation assay, mean (Donor 1 COP T-Cell Lines; Day 56, 30 μg/mL): 5217; Non-Canonical Peptide Non-Reactivity (Donor 1 COP T-Cell Lines): GLT 631; Reactive T-Cell Line (Donor 1 COP T-Cell Lines; Donor 1 COP lines, at least a 50% increase in proliferation relative to a control after stimulation with the non-canonical GA peptide): 222-1H12 (Donor 1); Nonreactive T-Cell Line (Donor 1 COP T-Cell Lines; Donor 1 COP lines): 222-2F12 (Donor 1)
